How the values were obtained:
[1] = tested on: Brachiaria plantaginea; test: Glasshouse trial, control of Brachiaria, pre-emergence test; type: in vivo; settings: TXP (where applied) 200 g ai/ha, 20 DAA
Description: (§1) A glasshouse trial was carried out to test the activity of mesotrione or the compound of formula I (each at 3 different rates) in combination with trinexapac-ethyl at 200 gai/ha against Brachiaria plantaginea. Brachiaria seeds were sown in standard potting mix in 50 cm plastic troughs. The adjuvant system was X-77 at 0.1% v/v in deionised water. 500 liters of herbicide/adjuvant system was used per hectare. General weed control was evaluated at 15 days after application (DAA) for the post-emergence test and 20DAA for the pre-emergence test. It is noted that all herbicides were applied at reduced field rates because herbicide effects are magnified in a glasshouse environment. Rates were chosen to give a 50 to 70% level of control with herbicides applied alone as this allows for detection of any synergistic effect when tank mixtures are used.

[2] = tested on: Brachiaria plantaginea; test: Glasshouse trial, control of Brachiaria, post-emergence test; type: in vivo; settings: TXP (where applied) 200 g ai/ha, 15 DAA
Description: as §1

| Structure (SMILES) | % Control at different herbicide rates ([1]; herbicide rate 30 g ai/ha) | % Control at different herbicide rates ([1]; herbicide rate 60 g ai/ha) | % Control at different herbicide rates ([1]; herbicide rate 125 g ai/ha) | % Control at different herbicide rates ([2]; herbicide rate 30 g ai/ha) | % Control at different herbicide rates ([2]; herbicide rate 60 g ai/ha) | % Control at different herbicide rates ([2]; herbicide rate 125 g ai/ha) |
| --- | --- | --- | --- | --- | --- | --- |
| COCCOCc1nc(C(F)(F)F)ccc1C(=O)C1=C(O)C2CCC(C2)C1=O (stereo not drawn) [Formula I] | 30% | 80% | 90% | 60% | 70% | 80% |
| CS(=O)(=O)c1ccc(C(=O)C2C(=O)CCCC2=O)c([N+](=O)[O-])c1 [Mesotrione, mesotrione] | 30% | 50% | 80% | 30% | 70% | 70% |
| CCOC(=O)C1CC(=O)C(=C(O)C2CC2)C(=O)C1 (stereo not drawn) [TXP, trinexapac-ethyl] | 0% | 0% | 0% | 0% | 0% | 0% |

From patent US9480252B2, “Herbicidal compositions” (Syngenta Crop Protection LLC, priority 2007, dated 2016)
